Source: US12569543B2, “Semaglutide in cardiovascular conditions” (Novo Nordisk A/S, priority 2016, dated 2026)

Tested on: human subjects with type 2 diabetes
Assay: Long-term randomised, double-blind, placebo-controlled cardiovascular outcomes trial with semaglutide
[1] = Table 4, coronary and peripheral, semaglutide arms
[2] = Table 4, individual component of MACE, semaglutide arms
[3] = Table 4, individual component of MACE, semaglutide vs placebo, Cox model
[4] = Table 4, MACE incl. revascularisation, hospitalisation for UAP and heart failure, semaglutide arms
[5] = Table 4, semaglutide vs placebo, Cox model
[6] = Table 5, under first MACE (CV death, non-fatal MI, non-fatal stroke), semaglutide arms
[7] = Table 5, MACE = cardiovascular death, non-fatal MI, non-fatal stroke, all subjects, semaglutide arms
[8] = Table 5 subgroup BMI >30 kg/m^2, semaglutide arms
[9] = Table 5 subgroup BMI ≤30 kg/m^2, semaglutide arms
[10] = Table 5 subgroup Ethnic origin: Asian, semaglutide arms
[11] = Table 5 subgroup Ethnic origin: Black or African-American, semaglutide arms
[12] = Table 5 subgroup Ethnic origin: Other, semaglutide arms
[13] = Table 5 subgroup Ethnic origin: White, semaglutide arms
[14] = Table 5 subgroup Heart failure NYHA class I or no heart failure, semaglutide arms
[15] = Table 5 subgroup Heart failure NYHA class II or III, semaglutide arms
[16] = Table 5 subgroup Sex: Female, semaglutide arms
[17] = Table 5 subgroup Sex: Male, semaglutide arms

Description: A long-term randomised, double-blind, placebo-controlled, four-armed parallel-group, multicentre, multi-national, safety and efficacy trial was carried out to evaluate cardiovascular and other long-term outcomes with semaglutide in 3,297 human subjects with type 2 diabetes.
The subjects were randomised to receive once weekly treatment doses of 0.5 mg semaglutide, 1.0 mg semaglutide, or volume-matched placebo, as an add-on to their standard-of-care treatment, wherein administration started with an initial dose escalation step at 0.25 mg semaglutide once weekly for 4 weeks, and for the 1.0 mg semaglutide group an additional 4 week period at 0.5 mg semaglutide once weekly, or their volume-matched placebo, as shown in Table 1. Additional glucose-lowering medications were allowed to be added to the anti-diabetic regimen to maintain target glycaemic control at the discretion of investigator.
Semaglutide was administered in the form of an aqueous solution comprising semaglutide or placebo, both using a 3 ml disposable pen-injector. This pen-injector was identical for the semaglutide and placebo administrations. This aqueous solution contained 1.34 mg/ml semaglutide, 1.42 mg/ml disodium phosphate dihydrate, 14.0 mg/ml propylene glycol, 5.5 mg/ml phenol, at pH 7.40.
Injections were administered in the thigh, abdomen or upper arm, at any time of day irrespective of meals. The injections were administered on the same day of the week during the trial.
In this trial, “clinical evidence of cardiovascular disease” was present when the subject fulfilled at least one criterion selected from the group consisting of a) to h): • a) prior myocardial infarction, • b) prior stroke or transient ischaemic attack, • c) prior coronary, carotid or peripheral arterial revascularisation, • d) >50% stenosis on angiography or imaging of coronary, carotid or lower extremity arteries, • e) history of symptomatic coronary heart disease (documented by e.g. positive exercise stress test or any cardiac imaging or unstable angina with ECG changes), • f) asymptomatic cardiac ischemia (e.g. documented by positive nuclear imaging test or exercise test or stress echo or any cardiac imaging), • g) heart failure New York Heart Association (NYHA) class and • h) chronic renal impairment (documented (prior to screening) by estimated glomerular filtration rate (eGFR)<60 mL/min/1.73 m^2 per MDRD).
In this trial, “subclinical evidence of cardiovascular disease” was present when the subject fulfilled at least one criterion selected from the group consisting of i) to l): • i) persistent microalbuminuria (30-299 mg/g) or proteinuria, • j) hypertension and left ventricular hypertrophy by ECG or imaging, • k) left ventricular systolic or diastolic dysfunction by imaging, and • l) ankle/brachial index<0.9.
The results of this trial may be presented herein as a number or fraction of subjects experiencing an event. […] The term “hazard ratio” (also referred to as “HR”) as used herein means the instantaneous risk ratio of experiencing an event when administered semaglutide compared to placebo which are the two treatments in this trial. An upper limit of the 95% confidence interval (CI) for the HR of less than 1.00 means that the estimated treatment ratio between semaglutide and placebo with respect to the event of interest is statistically significant in favour of semaglutide on a 5% significance level.

Substance: N^6.26-{18-[N-(17-carboxy-heptadecanoyl)-L-γ-glutamyl]-10-oxo-3,6,12,15-tetraoxa-9,18-diazaoctadecanoyl}-[8-(2-amino-2-propanoic acid),34-L-arginine]human glucagon-like peptide 1(7-37) [Semaglutide]
- Time to first non-fatal myocardial infarction (Kaplan-Meier plot) (FIG. 1, after a certain period of chronic treatment, vs placebo): particularly good effect
- Time to first revascularisation (Kaplan-Meier plot) (FIG. 2, after a certain period of chronic treatment, vs placebo): particularly good effect
- Revascularisation, N subjects with at least one event [1]: 83
- Revascularisation, percentage of subjects with at least one event [1]: 5.0%
- Revascularisation, hazard ratio (Table 4, coronary and peripheral, semaglutide vs placebo, Cox model): 0.65
- Cardiovascular death, N subjects with event [2]: 44
- Cardiovascular death, percentage of subjects with event [2]: 2.7%
- Myocardial infarction, non-fatal, N subjects with at least one event [2]: 47
- Myocardial infarction, non-fatal, percentage of subjects with at least one event [2]: 2.9%
- Stroke, non-fatal, N subjects with at least one event [2]: 27
- Stroke, non-fatal, percentage of subjects with at least one event [2]: 1.6%
- Cardiovascular death, hazard ratio [3]: 0.98
- Myocardial infarction, non-fatal, hazard ratio [3]: 0.74
- Stroke, non-fatal, hazard ratio [3]: 0.61
- Time to first MACE, hazard ratio (Table 4, MACE = CV death, non-fatal MI, non-fatal stroke, revascularisation, hospitalisation for UAP or heart failure, semaglutide vs placebo, Cox model): 0.74
- First MACE, N subjects experiencing at least one event [4]: 199
- First MACE, percentage of subjects experiencing at least one event [4]: 12.1%
- Coronary revascularisation, N subjects with at least one event (Table 4, semaglutide arms): 70
- Coronary revascularisation, percentage of subjects with at least one event (Table 4, semaglutide arms): 4.2%
- Hospitalisation for UAP, N subjects with at least one event (Table 4, semaglutide arms): 22
- Hospitalisation for UAP, percentage of subjects with at least one event (Table 4, semaglutide arms): 1.3%
- Hospitalisation for heart failure, N subjects with at least one event (Table 4, semaglutide arms): 59
- Hospitalisation for heart failure, percentage of subjects with at least one event (Table 4, semaglutide arms): 3.6%
- Peripheral revascularisation, N subjects with at least one event (Table 4, semaglutide arms): 16
- Peripheral revascularisation, percentage of subjects with at least one event (Table 4, semaglutide arms): 1.0%
- Coronary revascularisation, hazard ratio [5]: 0.68
- Hospitalisation for UAP, hazard ratio [5]: 0.82
- Hospitalisation for heart failure, hazard ratio [5]: 1.11
- Peripheral revascularisation, hazard ratio [5]: 0.63
- Cardiovascular death, N subjects [6]: 37
- Cardiovascular death, percentage of subjects [6]: 2.2%
- Myocardial infarction, non-fatal, N subjects [6]: 46
- Myocardial infarction, non-fatal, percentage of subjects [6]: 2.8%
- Stroke, non-fatal, N subjects [6]: 25
- Stroke, non-fatal, percentage of subjects [6]: 1.5%
- First MACE, N subjects experiencing at least one event [7]: 108
- First MACE, percentage of subjects experiencing at least one event [7]: 6.6%
- Time to first MACE, hazard ratio (Table 5, MACE = cardiovascular death, non-fatal MI, non-fatal stroke, all subjects, semaglutide vs placebo, Cox model): 0.74
- Time to first MACE, hazard ratio (Table 5 subgroup BMI >30 kg/m^2, MACE = CV death, non-fatal MI, non-fatal stroke, vs placebo): 0.84
- First MACE, N subjects with at least one event [8]: 69
- First MACE, percentage of subjects with at least one event [8]: 6.6%
- Time to first MACE, hazard ratio (Table 5 subgroup BMI ≤30 kg/m^2, MACE = CV death, non-fatal MI, non-fatal stroke, vs placebo): 0.58
- First MACE, N subjects with at least one event [9]: 39
- First MACE, percentage of subjects with at least one event [9]: 6.6%
- Time to first MACE, hazard ratio (Table 5 subgroup Ethnic origin: Asian, MACE = CV death, non-fatal MI, non-fatal stroke, vs placebo): 0.58
- First MACE, N subjects with at least one event [10]: 2
- First MACE, percentage of subjects with at least one event [10]: 5.7%
- Time to first MACE, hazard ratio (Table 5 subgroup Ethnic origin: Black or African-American, MACE = CV death, non-fatal MI, non-fatal stroke, vs placebo): 0.72
- First MACE, N subjects with at least one event [11]: 5
- First MACE, percentage of subjects with at least one event [11]: 4.6%
- Time to first MACE, hazard ratio (Table 5 subgroup Ethnic origin: Other, MACE = CV death, non-fatal MI, non-fatal stroke, vs placebo): 0.46
- First MACE, N subjects with at least one event [12]: 93
- First MACE, percentage of subjects with at least one event [12]: 6.7%
- Time to first MACE, hazard ratio (Table 5 subgroup Ethnic origin: White, MACE = CV death, non-fatal MI, non-fatal stroke, vs placebo): 0.76
- First MACE, N subjects with at least one event [13]: 8
- First MACE, percentage of subjects with at least one event [13]: 6.6%
- Time to first MACE, hazard ratio (Table 5 subgroup Heart failure NYHA class I or no heart failure, MACE = CV death, non-fatal MI, non-fatal stroke, vs placebo): 0.64
- First MACE, N subjects with at least one event [14]: 73
- First MACE, percentage of subjects with at least one event [14]: 5.4%
- Time to first MACE, hazard ratio (Table 5 subgroup Heart failure NYHA class II or III, MACE = CV death, non-fatal MI, non-fatal stroke, vs placebo): 1.03
- First MACE, N subjects with at least one event [15]: 35
- First MACE, percentage of subjects with at least one event [15]: 12.3%
- Time to first MACE, hazard ratio (Table 5 subgroup Sex: Female, MACE = CV death, non-fatal MI, non-fatal stroke, vs placebo): 0.84
- First MACE, N subjects with at least one event [16]: 35
- First MACE, percentage of subjects with at least one event [16]: 5.5%
- Time to first MACE, hazard ratio (Table 5 subgroup Sex: Male, MACE = CV death, non-fatal MI, non-fatal stroke, vs placebo): 0.68
- First MACE, N subjects with at least one event [17]: 73
- First MACE, percentage of subjects with at least one event [17]: 7.2%
- First MACE, N subjects with at least one event (Table 6, 0.5 mg semaglutide once weekly arm): 59
- Time to first MACE, hazard ratio (Table 6, 0.5 mg semaglutide once weekly arm vs its placebo, MACE = CV death, non-fatal MI, non-fatal stroke): 0.77
- First MACE, N subjects with at least one event (Table 6, 1.0 mg semaglutide once weekly arm): 49
- Time to first MACE, hazard ratio (Table 6, 1.0 mg semaglutide once weekly arm vs its placebo, MACE = CV death, non-fatal MI, non-fatal stroke): 0.71
- Effect on reducing cardiovascular disease (overall conclusion of the trial, more pronounced in some subgroups): surprisingly good effect on reducing cardiovascular disease
